Reference: PMC11056381, “Characterization and evaluation of cytotoxic and antimicrobial activities of cyclotides from Viola japonica” (Scientific Reports, 2024)
Residues, ends and D or L forms follow the SMILES beside them.

How the values were obtained:
Type in all cases: cell-based
[1] = tested on: Bacillus subtilis; assay: Time killing kinetics; conditions: about 10^6 CFU/mL, LB, 37 °C, colony count
Description: In this study, we investigated the time-kill kinetics characteristics of plant cyclotides against bacteria. […] It is worth noting that due to experimental constraints, there was a slight discrepancy of a few minutes between theoretical 0 h and actual 0 h. […] Furthermore, we also conducted time-kill kinetics studies using vija 10 against B. subtilis.
Figure 4 (A) The Acinetobacter baumannii time killing kinetics of cycloviolacin O2 at concentration of 1 MIC, 2 MIC, 4 MIC and 8 MIC at 37 °C. (B) The Bacillus subtilis time killing kinetics of vija 10 at concentration of 1 MIC, 2 MIC, 4 MIC at 37 °C. Each test was performed three times at least.
Incubate A. baumannii and B. subtilis in fresh nutrient LB broth at 37 °C until logarithmic growth stage, then dilute to approximately 10^6 CFU/mL, and incubate with cycloviolacin O2 at concentrations of 1 MIC, 2 MIC, 4 MIC, 8 MIC with A. baumannii and vija 10 at concentrations of 1 MIC, 2 MIC, 4 MIC with B. subtilis respectively. Taking the mixture at time points of 0 h, 0.5 h, 1 h, 1.5 h and 2 h, dilute and coat it to solid medium for 24 h. Count the number of colonies on solid culture medium. Each test was performed three times at least. Plotting a line graph with time on the x-axis and bacterial survival on the y-axis using GraphPad Prism 8. Statistical analysis of bacterial viability at different time points to determine the bactericidal and bacteriostatic effects of cyclotides.

[2] = tested on: Bacillus subtilis; assay: DAPI/PI staining, laser scanning confocal microscopy (membrane integrity); conditions: B. subtilis 10^8 CFU/mL, 37 °C, 1-2 h, DAPI and PI staining
From the text: Many naturally occurring antimicrobial peptides (AMPs) are cationic. Cationic AMPs (CAMPs) exert bactericidal activity by mechanisms featuring cell membrane disruption. Cyclotides are likely to kill germ by disrupting their membranes. Laser scanning confocal microscopy can be used to study the ability of cyclotides to destroy bacterial membrane. 4′, 6-diaminyl-2-phenylindole (DAPI) is a blue fluorescent dye that can penetrate membranes and stain both living and dead strains, while propyl iodide (PI) stains only strains with damaged membranes, glowing red[46],[47]. In this study, the bracelet cyclotide family members viba 11 and vija 10 interacted with A. baumannii and B. subtilis in their logarithmic phase at 37 °C for 1–2 h. After the addition of DAPI and PI fluorescent dyes, the samples were incubated in a dark room at room temperature for 15 min for staining. The stained samples were then centrifuged to concentrate, resuspended, and applied to a slide for observation using a confocal laser scanning microscope (FLUOVIEW FV3000, Olympus). […] With increasing concentration, the blue and red fluorescence gradually overlapped. […] However, the magnification is not sufficient to detect further details of membrane disruption. Therefore, further exploration can be conducted using methods such as scanning electron microscopy (SEM) to study the antibacterial mechanism in depth.
Figure 5 Study on the antimicrobial mechanism of cyclotides. (A) Incubation of Acinetobacter baumannii with sterile water, 1 MIC and 4 MIC of viba 11. (B) Incubation of Bacillus subtilis with sterile water, 1 MIC and 4 MIC of vija 10. All samples were stained with DAPI and PI. The negative control group PI is not stained and the membrane is intact, while the membrane treated with cyclotides was stained and the membrane are destroyed. Scale bar: 20 μm. Magnification: 600×.
Take 50 μL of A. baumannii and B. subtilis (10^8 CFU/mL), and add 50 μL of sterile water, different concentrations of cyclotides viba 11 and vija 10 to achieve final concentrations of 1 MIC and 4 MIC respectively. Incubate at 37 °C for 1–2 h. Subsequently, add 4,6-diamino-2-phenylindole (DAPI) and propidium iodide (PI) dyes at 20 μg/mL each, and incubate in the dark for 15 min. Centrifuge at 5000 rpm for 3 min to concentrate, discard the majority of the supernatant, and resuspend the bacteria in the remaining small volume of liquid. Mix well and take 10 μL of the stained sample onto a glass slide, gently place a cover slip on top with forceps, avoiding the formation of bubbles during the pressing process. After sealing the cover slip, check with a laser confocal microscope, and the observation was conducted using an objective lens with the maximum magnification of 60 × . […]

[3] = tested on: 4T1 (mouse breast cancer cells); assay: MTT cytotoxicity assay; conditions: 4T1 cells, 48 h incubation, mean ± SD of at least three repeats
Description: (§1) Five types of cells, namely A549 (human non-small cell lung cancer cells), T24 (human bladder cancer cells), 4T1 (mouse breast cancer cells), 7402 (human hepatocellular carcinoma cells), and THLE-3 (human hepatocytes cells), are selected for evaluating the cytotoxicity of viba 11, cycloviolacin O2, and vija 10 using the MTT (3-(4,5-dimethylthiazol-2-yl)-2,5-diphenyltetrazolium bromide) reagent.
(§2) To determine cell toxicity using MTT assay, cells are seeded in a 96-well plate and cultured for 24 h. After that, different concentrations of cyclotides are added to the cells and incubated for 48 h. MTT is then added to react with the cells, and after 4 h, the reaction is terminated by discarding the supernatant and adding dimethyl sulfoxide for resuspension. The absorbance at 570 nm is measured after 10 min of shaking at room temperature. Each test was performed three times at least. The data were analyzed using GraphPad Prism 8. During this process, the drug concentrations were transformed into logarithmic form with a base of 10 and plotted on the x-axis. Cell viability (%) = [A (cyclotides) − A (blank)]/[A (control) − A (blank)] × 100, which was represented on the y-axis. Using this method, we determined the IC50 value for each experiment, with each experiment repeated at least three times and the mean value calculated. The error was represented by the standard deviation of the IC50 obtained from three repetitions.

[4] = tested on: 7402 (human hepatocellular carcinoma cells); assay: MTT cytotoxicity assay; conditions: 7402 cells, 48 h incubation, mean ± SD of at least three repeats
Description: as §1, §2

[5] = tested on: A549 (human non-small cell lung cancer cells); assay: MTT cytotoxicity assay; conditions: 48 h incubation, mean ± SD of at least three repeats
Description: as §1, §2

[6] = tested on: T24 (human bladder cancer cells); assay: MTT cytotoxicity assay; conditions: 48 h incubation, mean ± SD of at least three repeats
Description: as §1, §2

[7] = tested on: THLE-3 (human hepatocytes cells); assay: MTT cytotoxicity assay; conditions: THLE-3 cells, 48 h incubation, mean ± SD of at least three repeats
Description: as §1, §2

With `CC[C@H](C)[C@@H]1NC(=O)[C@@H]2CSSC[C@@H]3NC(=O)[C@H](C(C)C)NC(=O)[C@H](CCCCN)NC(=O)[C@H](CO)NC(=O)[C@H](CO)NC(=O)[C@@H]4CSSC[C@H](NC(=O)[C@H](CO)NC(=O)[C@H](CCC(=O)O)NC(=O)CNC(=O)[C@H](CSSC[C@H](NC(=O)CNC(=O)[C@H](CC(C)C)NC(=O)[C@H](CC(C)C)NC(=O)[C@H](C)NC(=O)[C@H](CO)NC1=O)C(=O)N[C@@H](CO)C(=O)N4)NC(=O)[C@@H]1CCCN1C(=O)[C@H]([C@@H](C)CC)NC(=O)[C@H](CO)NC(=O)CNC(=O)[C@H](CC(N)=O)NC(=O)[C@H](CCCCN)NC(=O)[C@H](Cc1ccc(O)cc1)NC3=O)C(=O)N[C@@H](C(C)C)C(=O)N[C@@H](Cc1ccccc1)C(=O)N[C@@H]([C@@H](C)CC)C(=O)N1CCC[C@H]1C(=O)N2` [vija 10] (HELM PEPTIDE1{A.L.L.G.C.S.C.S.S.K.V.C.Y.K.N.G.S.I.P.C.G.E.S.C.V.F.I.P.C.I.S}$PEPTIDE1,PEPTIDE1,5:R3-20:R3|PEPTIDE1,PEPTIDE1,7:R3-24:R3|PEPTIDE1,PEPTIDE1,12:R3-29:R3|PEPTIDE1,PEPTIDE1,1:R1-31:R2$$$V2.0) the “time of treatment to complete eradication of B. subtilis” value ([1]; 2 MIC) was 2 h, the “time of treatment to effective killing of B. subtilis” value ([1]; 4 MIC) was 1 h and the “membrane integrity (PI red fluorescence)” value ([2]; 1 MIC) was “caused damage to the membrane integrity”. For the same compound, the “membrane integrity (PI red fluorescence)” value ([2]; 4 MIC) was “majority of the cell membranes were ruptured”, the IC50 [3] was 244 ± 20 nM and the IC50 [4] was 2180 ± 60 nM. For the same compound, the IC50 [5] was 733 ± 200 nM, the IC50 [6] was 3280 ± 150 nM and the IC50 [7] was 2090 ± 60 nM.
